Source: US7538135B2, “Benzenesulfonylamino compounds and pharmaceutical compositions containing these compounds” (Novartis AG, priority 2003, dated 2009)

Tests used:
GST-hPPARα LBD = target: T1, GST-hPPARα LBD (Homo sapiens, UniProt Q07869); assay: PPARα receptor binding assay (CARLA, TR-FRET functional binding); type: biochemical; conditions: TR-FRET coactivator (SRC-1 peptide) recruitment, 3 hours at room temperature
T1 construct: made in house; host or cells: E. coli BL21(DE3)
T1 sequence (Q07869 167-468): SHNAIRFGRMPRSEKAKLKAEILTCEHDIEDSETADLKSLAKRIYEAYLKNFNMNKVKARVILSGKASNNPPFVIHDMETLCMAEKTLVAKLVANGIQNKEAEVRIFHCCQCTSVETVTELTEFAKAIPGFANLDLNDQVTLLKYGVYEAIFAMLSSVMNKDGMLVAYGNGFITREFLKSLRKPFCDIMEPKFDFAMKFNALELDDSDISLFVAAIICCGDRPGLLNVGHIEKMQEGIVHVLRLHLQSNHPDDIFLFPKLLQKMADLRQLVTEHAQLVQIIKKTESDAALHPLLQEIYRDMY
T1 sequence (Q15788 676-700 partner limits assumed): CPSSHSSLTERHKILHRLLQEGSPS
Protocol: (§1) The in vitro functional binding to the PPARα, PPARδ and PPARγ receptors is determined as follows:
(§2) The functional binding assays for the PPARα, PPARδ and PPARγ receptors are a variation of the coactivator-dependent receptor ligand assay (CARLA) (see Krey et al., “Fatty Acids, Eicosanoids, and Hypolipidemic Agents Identified as Ligands of Peroxisome Proliferator-Activated Receptors by Coactivator-Dependent Receptor Ligand Assay”, Molecular Endocrinology, Vol. 11, pp. 779-791 (1997)). The present CARLA assays use a TR-FRET detection method previously reviewed (see Hemmila, “LANCE: Homogeneous Assay Platform for HTS”, J. Biomol. Screening, Vol. 4, pp. 303-307 (1999); Mathis, “HTRF Technology”, J. Biomol. Screening, Vol. 4, pp. 309-313 (1999)). […] This brings the Eu-labeled anti-GST antibody and the strepavidin-labeled APC in close proximity, thereby facilitating fluorescence energy transfer. […] After mixing all components, the reaction mixture stands for 3 hours at room temperature before reading the TR-FRET (Time-Resolved Fluorescence Resonance Energy Transfer) signal on a Wallac Victor 2 plate reader (measuring the ratio of signals at […]). […]

GST-hPPARγ LBD = target: T2, GST-hPPARγ LBD (Homo sapiens, UniProt P37231); assay: PPARγ receptor binding assay (CARLA, TR-FRET functional binding); type: biochemical; conditions: TR-FRET coactivator (SRC-1 peptide) recruitment, 3 hours at room temperature
T2 construct: GST-hPPARγ LBD (amino acids 175-476); made in house; host or cells: E. coli BL21(DE3)
T2 sequence (P37231 175-476 isoform P37231-2): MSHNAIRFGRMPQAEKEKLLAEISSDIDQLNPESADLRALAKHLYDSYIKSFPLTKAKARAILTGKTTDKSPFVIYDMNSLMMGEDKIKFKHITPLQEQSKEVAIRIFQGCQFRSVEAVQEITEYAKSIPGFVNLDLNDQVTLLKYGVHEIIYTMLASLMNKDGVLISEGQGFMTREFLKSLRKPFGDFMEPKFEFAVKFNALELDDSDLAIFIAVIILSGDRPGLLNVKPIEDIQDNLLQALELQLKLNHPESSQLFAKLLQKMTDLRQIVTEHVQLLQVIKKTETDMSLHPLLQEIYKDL
T2 sequence (Q15788 676-700 partner limits assumed): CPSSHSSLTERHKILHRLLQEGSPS
Protocol: as §1, §2

CCOC(=O)c1cn(CC)nc1NS(=O)(=O)c1ccc(OCc2nc(-c3ccc(C(F)(F)F)cc3)oc2C)cc1 [Example 1, 1-Ethyl-3-{4-[5-methyl-2-(4-trifluoromethyl-phenyl)oxazol-4-ylmethoxy]-benzene-sulfonylamino}-1H-pyrazole-4-carboxylic acid ethyl ester]
EC50 (GST-hPPARα LBD): ~5 nM
EC50 (GST-hPPARγ LBD): ~3 nM
